Values joined by “and” are separate entries in the source; they are usually repeats but may differ in a detail not shown here. Equal entries are not always repeated.
Key:
AR-TIF2 PPI = target: T1, AR-TIF2 PPI (Homo sapiens, UniProt P10275); assay: AR-TIF2 PPI biosensor (PPIB) HCS assay, inhibition of DHT-induced AR-TIF2 PPI formation; format: cell-based; conditions: for IC50: U-2 OS cells, compounds 3 h prior to 25 nM DHT for 90 min
T1 construct: expressed in transfected cells; host or cells: U-2 OS osteosarcoma cells, co-infected with recombinant adenoviruses
T1 sequence (P10275 663-920 limits assumed): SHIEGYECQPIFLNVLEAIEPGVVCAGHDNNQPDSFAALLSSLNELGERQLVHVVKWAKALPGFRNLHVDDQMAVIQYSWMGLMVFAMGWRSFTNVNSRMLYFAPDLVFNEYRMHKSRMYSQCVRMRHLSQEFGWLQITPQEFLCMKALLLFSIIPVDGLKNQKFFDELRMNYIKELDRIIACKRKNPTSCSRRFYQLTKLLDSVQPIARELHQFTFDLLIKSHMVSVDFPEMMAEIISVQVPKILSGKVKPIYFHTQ
Protocol: Daughter plates containing 2 μL of the serially diluted compounds in DMSO were prepared and replicated from 384-well serial dilution master plates using a Janus MDT platform outfitted with a 384-well transfer head. Aluminum adhesive plate seals were applied, and plates were stored at −20 °C. For bioassay testing, daughter plates were withdrawn from −20 °C storage, thawed to ambient temperature, and centrifuged for 1 min at 100 × g, and plate seals were removed before 38 μL of serum-free media (SFM) was transferred into wells using a Matrix pipettor (ThermoFisher, Waltham, MA), to generate an intermediate stock concentration of validation compounds ranging from 0.977 to 500 μM (5.0% DMSO). Diluted compounds were mixed by repeated aspiration and dispensation using a 384-well P30 dispensing head on the Janus MDT platform and then, 5 μL of diluted compounds was transferred to assay plate wells to provide a final concentration range from 0.0977 to 50 μM (0.5% DMSO).
The AR-TIF2 PPIB HCS assay was performed in U-2 OS osteosarcoma cells as described previously. Briefly, U-2 OS cells were coinfected with recombinant adenovirus biosensor expression constructs and seeded at 2500 cells per well in 384-well collagen-coated microplates (Greiner BioOne #781956) and plates were incubated overnight at 37°C in 5% CO2 and 95% humidity. […] After the appropriate time, assay plates were fixed by transfer of 50 μL of pre-warmed (37°C) 7.4% formaldehyde and 2 μg/mL Hoechst 33342 in PBS and incubation at room temperature for 30 min. Liquid was aspirated, plates were washed twice with 85 μL PBS, leaving the final wash in the plate. Plates were sealed with adhesive aluminum plate seals, and fluorescent images of three fields of view were acquired in the DAPI (Hoechst stained nuclei), FITC (TIF2-GFP) and Texas Red (AR-RFP) channels on an ImageXpress Micro (IXM) automated HCS platform (Molecular Devices LLC, Sunnyvale, CA) using a 10X Plan Fluor 0.3 NA objective. Images were analyzed using the Translocation Enhanced (TE) image analysis module of the MetaXpress software as described previously.
In 384-well assays, DMSO minimum (n = 32) and maximum (n = 32) plate control wells were utilized to calculate signal-to-background ratios (S:B) and Z’-factor coefficient assay performance quality control statistics, and to normalize the signals of compound treated wells and to represent 0% and 100% respectively. For the 96-well AR-LBD H^3-DHT radioligand binding assay, eight minimum and maximum plate control wells were utilized to normalize the data. For the PC cell line growth inhibition assays we used the DMSO control data from the T0 and T72 assay plates to assess the dynamic range of the T0 to T72 cell growth, and to calculate S:B ratios and Z’-factor coefficient statistics for the assay signal window (T0 to T72). To normalize the 72 h compound exposure PC growth inhibition data, the signals from the compound treated wells were processed and expressed as% of the T72 DMSO plate controls. IC50 and GI50 values for each of the bioassays were calculated using Graph-Pad Prism 9 software to plot and fit data to curves using the Sigmoidal dose response variable slope equation Y = Bottom + [Top-Bottom]/ [1 + 10^^(LogEC50-X)*HillSlope].

[1] = target: T2, AR-LBD::TIF2-Box III-LXXLL-Peptide (Homo sapiens, UniProt P10275); assay: AR-LBD::TIF2-Box III-LXXLL-peptide AlphaScreen binding assay; conditions: DHT-induced TIF2 box 3 LXXLL-peptide binding to recombinant AR-LBD
T2 construct: The pET28a-AR-LBD (622–919) construct [78] was a gift; made in house
T2 sequence (P10275 622-919): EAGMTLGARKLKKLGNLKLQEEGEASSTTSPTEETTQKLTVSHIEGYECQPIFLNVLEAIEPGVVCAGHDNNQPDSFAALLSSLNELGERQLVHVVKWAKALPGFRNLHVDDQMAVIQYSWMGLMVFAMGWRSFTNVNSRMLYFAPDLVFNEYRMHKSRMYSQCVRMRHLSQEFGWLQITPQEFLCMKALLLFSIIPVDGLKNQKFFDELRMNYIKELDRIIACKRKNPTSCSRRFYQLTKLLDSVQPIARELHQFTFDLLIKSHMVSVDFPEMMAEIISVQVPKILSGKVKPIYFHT
Description: The pET28a-AR-LBD (622–919) construct was a gift from Dr. Fletterick and Dr. Nguyen of University of California San Francisco. Biotinylated (Biotin-HN-[…]-CONH2) and non-biotinylated TIF2-box-III (738–756) peptide (H2N-[…]-CONH2) were synthesized by the Peptide & Peptoid Synthesis Facility, at the University of Pittsburgh Health Sciences Core Research Facilities. ALPHAScreen streptavidin donor beads (SA-DB) and nickel chelate acceptor beads (Ni-AB) were purchased from Perkin Elmer (Waltham, MA). The assay was performed in 384-well white opaque plates (Greiner BioOne, #781080). […] 18 uL of the SA-DB bound biotinylated TIF2 peptide mixture was added to the assay plate before 5 μL of compounds were transferred into assay wells and 27 μL of the AlphaScreen donor and acceptor bead mixture was added to the plate. 32 wells containing 0.5% DMSO provided maximum controls and 32 wells containing a 500-fold excess of unlabeled TIF2-box-III (75 μM) were used as minimum controls. The combined bead-protein-peptide-compound mixture was incubated for 1 h at room temperature in the dark, and then the RLU’s were acquired at 520 nm after excitation at 680 nm on an Envision plate reader (Perkin Elmer, Waltham, MA) as described previously.

| IC50 (AR-TIF2 PPI) | IC50 [1] [µM] | Reduction in relative potency versus parent hit in AR-TIF2 PPIB assay formats (AR-TIF2 PPI; S1 analogs vs S1–1, S3–15 vs S3–14) | SMILES |
| --- | --- | --- | --- |
| 5.64 µM | 21.4 |  | Cc1ccccc1-c1cc(O)c2c(c1)CN(c1nc(C(N)=O)cs1)CCO2 [S1–1] |
| 30.5 µM | 44.1 |  | Cc1ccccc1-c1cc(O)c2c(c1)CN(c1nccs1)CCO2 [S1–3] |
| 1.06 µM | 64.2 |  | Cc1nsc(NC(=O)N2CCC(Sc3ccccc3C)CC2)n1 [S2–6] |
| 3.25 µM and 3.2 µM | 88.3 |  | Cc1c(-c2ccccc2F)[nH]c2ccc(CNC(=O)CCc3cn[nH]c3)cc12 [S3–11] |
| 4.24 µM |  |  | Cc1c(-c2ccccc2F)[nH]c2ccc(CNC(=O)CCc3cnccn3)cc12 [S3–12] |
| 7.16 µM | 91.6 |  | CC(=O)NCCC(=O)NCc1ccc2[nH]c(-c3ccccc3F)c(C)c2c1 [S3–13] |
| 2.13 µM | 28.3 |  | Cc1c(-c2ccccc2F)[nH]c2ccc(CNC(=O)c3ccc(CO)o3)cc12 [S3–14] |
| 5.11 µM | 19.6 | ~ 2 fold | Cc1c(-c2ccc(F)cc2)[nH]c2ccc(CNC(=O)c3ccc(CO)o3)cc12 [S3–15] |

From paper PMC12366525, “Characterization of allosteric modulators that disrupt androgen receptor co-activator protein-protein interactions to alter transactivation–Drug leads for metastatic castration resistant prostate cancer” (SLAS discovery : advancing life sciences R & D, 2023)
